Experimental data taken from patent US9114171B2, “Racecadotril liquid compositions” (McNeil-PPC, Inc., priority 2012, dated 2015).

Key:
[1] = Stability of Racecadotril in Beta-Hydroxypropyl-Cyclodextrin (Beta-HPCD), Table 5; format: physicochemical
Experimental: Formulations of racecadotril in beta-hydroxypropyl-cyclodextrin were evaluated (Table 5).
(§1) Test Methods Sample Preparation: • 1. Pipet 1 mL of Racecadotril solution into a 100 mL volumetric flask (V.F.) • 2. Dilute to volume with the same buffer used in the solution preparation. • 3. Further dilute the sample solution to about 0.1 mg/mL if necessary. […] Parameters may be modified to optimize chromatography. • The assay of Racecadotril is determined by using the external standard injected. The degradation products levels are determined by % peak area relative to the Racecadotril peak. Chromatographic Conditions (European Pharmacopoeia Racecadotril Method): […]

[2] = Stability of Racecadotril in Water; format: physicochemical; details: room temperature and 40° C.
Experimental: as §1, with “For comparative purposes, the stability of racecadotril was tested at room temperature and at 40° C. Test” for “Test”

racecadotril present ([2]; in water, at 1 week): less than 1% | stability in water [2]: unstable after 12 hours
SMILES: CC(=O)SCC(Cc1ccccc1)C(=O)NCC(=O)OCc1ccccc1 (racemic) [Racecadotril]
solubility utilizing Beta-HPCD [1]: higher solubility was achieved utilizing the Beta-HPCD | stability in Beta-HPCD versus buffers alone ([1]; 40° C.): stability is similar to that in buffers alone
